The molecules below were run against MMP-13 (Homo sapiens, UniProt P45452) (assay: EnzoLyte 520 Generic MMP Assay Kit, 5-FAM/QXL520 FRET peptide substrate).
Format: biochemical
Text: The EnzoLyte™ 520 Generic MMP Assay Kit (AnaSpec Inc.) can detect the activity of several MMPs including MMP-1, 2, 3, 7, 8, 9, 13, and 14. This kit uses a 5-FAM/QXL™520 fluorescence resonance energy transfer (FRET) peptide as an MMP substrate.
An IC50 of 6 nM was found for `CNC(=O)[C@@H](NC(=O)c1ccc(-c2ccc(OCc3ccnn3C)cn2)o1)C1CCCCC1` [N-[(1S)-1-cyclohexyl-2-(methylamino)-2-oxoethyl]-5-{5-[(1-methyl-1H-pyrazol-5-yl)methoxy]pyridin-2-yl}furan-2-carboxamide] in this work.
An IC50 of 7 nM was found for `CNC(=O)[C@@H](NC(=O)c1ccc(-c2cccc(CNC(=O)c3ccnc(C(F)(F)F)n3)c2)o1)C1CCCCC1` [N-[3-(5-{[(1S)-1-cyclohexyl-2-(methylamino)-2-oxoethyl]carbamoyl}furan-2-yl)benzyl]-2-(trifluoromethyl)pyrimidine-4-carboxamide] in this work.
An IC50 of 49 nM was found for `CNC(=O)[C@@H](NC(=O)c1ccc(-c2cccc(CNC(=O)c3cccc(C(F)(F)F)c3)c2)o1)C(C)C` [5-{3-[(3-Trifluoromethyl-benzoylamino)-methyl]-phenyl}-furan-2-carboxylic acid ((S)-2-methyl-1-methylcarbamoyl-propyl)-amide] in this work.
An IC50 of 38 nM was found for `CCc1ccnc(C(=O)NCc2cccc(-c3ccc(C(=O)N[C@H](C(=O)NC)C4CCCCC4)o3)c2)c1` [N-[3-(5-{[(1S)-1-cyclohexyl-2-(methylamino)-2-oxoethyl]carbamoyl}furan-2-yl)benzyl]-4-ethylpyridine-2-carboxamide] in this work.
An IC50 of 315 nM was found for `CCc1ccc(-c2ccc(C(=O)N[C@H](C(=O)NC)C3CCCCC3)o2)cc1` [N-[(1S)-1-cyclohexyl-2-(methylamino)-2-oxoethyl]-5-(4-ethylphenyl)furan-2-carboxamide] in this work.
An IC50 of 91 nM was found for `CNC(=O)[C@@H](NC(=O)c1ccc(-c2ccc(-c3ccc4cc[nH]c4c3)cn2)o1)C(C)C` [5-[5-(1H-Indol-6-yl)-pyridin-2-yl]-furan-2-carboxylic acid ((S)-2-methyl-1-methylcarbamoyl-propyl)-amide] in this work.
An IC50 of 99 nM was found for `CNC(=O)[C@@H](NC(=O)c1ccc(-c2ccc(NC(=O)c3ccnn3C)cc2)o1)C1CCCCC1` [N-[4-(5-{[(1S)-1-cyclohexyl-2-(methylamino)-2-oxoethyl]carbamoyl}furan-2-yl)phenyl]-1-methyl-1H-pyrazole-5-carboxamide] in this work.
An IC50 of 2 nM was found for `CNC(=O)[C@@H](NC(=O)c1ccc(-c2cccc(CNC(=O)c3ccnc(C(F)(F)F)n3)c2)o1)C1CCOCC1` [N-[3-(5-{[(1S)-2-(methylamino)-2-oxo-1-(tetrahydro-2H-pyran-4-yl)ethyl]carbamoyl}-2-furyl)benzyl]-2-(trifluoromethyl)pyrimidine-4-carboxamide] in this work.
An IC50 of 430 nM was found for `CNC(=O)[C@@H](NC(=O)c1ccc(-c2ccc(Cl)cc2)o1)C1CCNCC1` [5-(4-Chlorophenyl)-N-[(1S)-2-(methylamino)-2-oxo-1-(piperidin-4-yl)ethyl]furan-2-carboxamide] in this work.
An IC50 of 103 nM was found for `CNC(=O)[C@@H](NC(=O)c1ccc(-c2ccc(NC(=O)c3cn4c(C#N)cccc4n3)cc2)o1)C1CCCCC1` [5-Cyano-N-[4-(5-{[(1S)-1-cyclohexyl-2-(methylamino)-2-oxoethyl]carbamoyl}furan-2-yl)phenyl]imidazo[1,2-a]pyridine-2-carboxamide] in this work.
An IC50 of 17 nM was found for `CCNC(=O)[C@@H](NC(=O)c1ccc(-c2ccc(OCc3ccccc3)cn2)o1)C1CCCCC1` [5-[5-(Benzyloxy)pyridin-2-yl]-N-[(1S)-1-cyclohexyl-2-(ethylamino)-2-oxoethyl]furan-2-carboxamide] in this work.
An IC50 of 123 nM was found for `CNC(=O)[C@@H](NC(=O)c1ccc(-c2cccc(CNC(=O)c3cc(C)n[nH]3)c2)o1)C1CCCCC1` [N-[3-(5-{[(1S)-1-cyclohexyl-2-(methylamino)-2-oxoethyl]carbamoyl}furan-2-yl)benzyl]-3-methyl-1H-pyrazole-5-carboxamide] in this work.
An IC50 of 22 nM was found for `Cc1cccc(C(=O)Nc2ccc(-c3ccc(C(=O)N[C@H](C(=O)NC[C@@H](C)O)C4CCCCC4)o3)cc2)n1` [N-[4-(5-{[(1S)-1-cyclohexyl-2-{[(2R)-2-hydroxypropyl]amino}-2-oxoethyl]carbamoyl}furan-2-yl)phenyl]-6-methylpyridine-2-carboxamide] in this work.
An IC50 of 175 nM was found for `CNC(=O)[C@@H](NC(=O)c1ccc(-c2ccc(SC)cc2)o1)C1CCCCC1` [N-[(1S)-1-cyclohexyl-2-(methylamino)-2-oxoethyl]-5-[4-(methylsulfanyl)phenyl]furan-2-carboxamide] in this work.
An IC50 of 74 nM was found for `COCCNC(=O)[C@@H](NC(=O)c1ccc(-c2ccc(C#N)cc2)o1)C1CCCCC1` [5-(4-cyanophenyl)-N-{(1S)-1-cyclohexyl-2-[(2-methoxyethyl)amino]-2-oxoethyl}furan-2-carboxamide] in this work.
An IC50 of 270 nM was found for `CCOc1ccc(-c2ccc(C(=O)N[C@H](C(=O)NC)C3CCCCC3)o2)cc1` [N-[(1S)-1-cyclohexyl-2-(methylamino)-2-oxoethyl]-5-(4-ethoxyphenyl)furan-2-carboxamide] in this work.
An IC50 of 280 nM was found for `CNC(=O)[C@@H](NC(=O)c1ccc(-c2cccc(CNC(=O)c3cc(C)no3)c2)o1)C(C)C` [3-Methyl-isoxazole-5-carboxylic acid 3-[5-((S)-2-methyl-1-methylcarbamoyl-propylcarbamoyl)-furan-2-yl]-benzylamide] in this work.
An IC50 of 2 nM was found for `CNC(=O)[C@@H](NC(=O)c1ccc(-c2ccc(OCc3cc(C)nc(C)c3)cn2)o1)C1CCCCC1` [N-[(1S)-1-cyclohexyl-2-(methylamino)-2-oxoethyl]-5-{5-[(2,6-dimethylpyridin-4-yl)methoxy]pyridin-2-yl}furan-2-carboxamide] in this work.
An IC50 of 93 nM was found for `CNC(=O)[C@@H](NC(=O)c1ccc(-c2ccc(NC(=O)c3occc3C)cc2)o1)C1CCCCC1` [N-[4-(5-{[(1S)-1-cyclohexyl-2-(methylamino)-2-oxoethyl]carbamoyl}furan-2-yl)phenyl]-3-methylfuran-2-carboxamide] in this work.
An IC50 of 119 nM was found for `CNC(=O)[C@@H](NC(=O)c1ccc(-c2ccc(OCc3cn(C)cn3)cn2)o1)C1CCCCC1` [N-[(1S)-1-cyclohexyl-2-(methylamino)-2-oxoethyl]-5-{5-[(1-methyl-1H-imidazol-4-yl)methoxy]pyridin-2-yl}furan-2-carboxamide] in this work.
An IC50 of 395 nM was found for `CNC(=O)[C@@H](NC(=O)c1ccc(-c2ccc(Br)cc2)o1)C1CCCCC1` [5-(4-Bromophenyl)-N-[(1S)-1-cyclohexyl-2-(methylamino)-2-oxoethyl]furan-2-carboxamide] in this work.
An IC50 of 423 nM was found for `CNC(=O)[C@@H](NC(=O)c1ccc(-c2ccc(CNC(=O)C3CC3)cc2)o1)C1CCCCC1` [N-[(1S)-1-cyclohexyl-2-(methylamino)-2-oxoethyl]-5-(4-{[(cyclopropylcarbonyl)amino]methyl}phenyl)furan-2-carboxamide] in this work.
An IC50 of 325 nM was found for `CNC(=O)[C@@H](NC(=O)c1ccc(-c2ccc(-c3cccc(F)c3)cn2)o1)C(C)C` [5-[5-(3-Fluoro-phenyl)-pyridin-2-yl]-furan-2-carboxylic acid ((S)-2-methyl-1-methylcarbamoyl-propyl)-amide] in this work.
An IC50 of 155 nM was found for `CNC(=O)[C@@H](NC(=O)c1ccc(-c2cccc(CNC(=O)c3ccc(OC)cc3)c2)o1)C(C)C` [5-{3-[(4-Methoxy-benzoylamino)-methyl]-phenyl}-furan-2-carboxylic acid ((S)-2-methyl-1-methylcarbamoyl-propyl)-amide] in this work.
An IC50 of 31 nM was found for `CNC(=O)[C@@H](NC(=O)c1ccc(-c2ccc(NC(=O)c3ccn(C)n3)cc2)o1)C1CCCCC1` [N-[4-(5-{[(1S)-1-cyclohexyl-2-(methylamino)-2-oxoethyl]carbamoyl}furan-2-yl)phenyl]-1-methyl-1H-pyrazole-3-carboxamide] in this work.
An IC50 of 397 nM was found for `CNC(=O)[C@@H](NC(=O)c1ccc(-c2cccc(CNC(=O)C3CC3)c2)o1)C1CCCCC1` [N-[(1S)-1-cyclohexyl-2-(methylamino)-2-oxoethyl]-5-(3-{[(cyclopropylcarbonyl)amino]methyl}phenyl)furan-2-carboxamide] in this work.
An IC50 of 185 nM was found for `CNC(=O)[C@@H](NC(=O)c1ccc(-c2cccc(CNC(=O)c3ccc(C#N)cc3)c2)o1)C(C)C` [5-{3-[(4-Cyano-benzoylamino)-methyl]-phenyl}-furan-2-carboxylic acid ((S)-2-methyl-1-methylcarbamoyl-propyl)-amide] in this work.
An IC50 of 47 nM was found for `CCOc1ccc(-c2ccc(-c3ccc(C(=O)N[C@H](C(=O)NC)C(C)C)o3)nc2)cc1` [5-[5-(4-Ethoxy-phenyl)-pyridin-2-yl]-furan-2-carboxylic acid ((S)-2-methyl-1-methylcarbamoyl-propyl)-amide] in this work.
An IC50 of 9 nM was found for `CNC(=O)[C@@H](NC(=O)c1ccc(-c2cccc(CNC(=O)c3ccccn3)c2)o1)C1CCCCC1` [N-[3-(5-{[(1S)-1-cyclohexyl-2-(methylamino)-2-oxoethyl]carbamoyl}furan-2-yl)benzyl]pyridine-2-carboxamide] in this work.
An IC50 of 11 nM was found for `CNC(=O)[C@@H](NC(=O)c1ccc(-c2cccc(CNC(=O)c3cc4ccccc4o3)c2)o1)C1CCCCC1` [N-[3-(5-{[(1S)-1-cyclohexyl-2-(methylamino)-2-oxoethyl]carbamoyl}furan-2-yl)benzyl]-1-benzofuran-2-carboxamide] in this work.
An IC50 of 175 nM was found for `CNC(=O)[C@@H](NC(=O)c1ccc(-c2cccc(CNC(=O)c3ccc(C)cc3)c2)o1)C(C)C` [5-{3-[(4-Methyl-benzoylamino)-methyl]-phenyl}-furan-2-carboxylic acid ((S)-2-methyl-1-methylcarbamoyl-propyl)-amide] in this work.
An IC50 of 115 nM was found for `CNC(=O)[C@@H](NC(=O)c1ccc(-c2ccc(OCc3cc(C)cc(C)c3)cn2)o1)C1CCCCC1` [N-[(1S)-1-cyclohexyl-2-(methylamino)-2-oxoethyl]-5-{5-[(3,5-dimethylbenzyl)oxy]pyridin-2-yl}furan-2-carboxamide] in this work.
An IC50 of 300 nM was found for `CC[C@H](C)[C@H](NC(=O)c1ccc(-c2ccc(Cl)cc2)o1)C(=O)NC` [5-(4-Chloro-phenyl)-furan-2-carboxylic acid ((1S,2S)-2-methyl-1-methylcarbamoyl-butyl)-amide] in this work.
An IC50 of 225 nM was found for `CNC(=O)[C@@H](NC(=O)c1ccc(-c2ccc(NC(=O)OC)cc2)o1)C1CCCCC1` [Methyl [4-(5-{[(1S)-1-cyclohexyl-2-(methylamino)-2-oxoethyl]carbamoyl}furan-2-yl)phenyl]carbamate] in this work.
An IC50 of 132 nM was found for `CNC(=O)[C@@H](NC(=O)c1ccc(-c2cccc(CNC(=O)c3cccc(C)c3)c2)o1)C(C)C` [5-{3-[(3-Methyl-benzoylamino)-methyl]-phenyl}-furan-2-carboxylic acid ((S)-2-methyl-1-methylcarbamoyl-propyl)-amide] in this work.
